Assay results from patent US20240317755A1, “HETEROCYCLIC COMPOUND, AND INTERMEDIATE THEREOF, PREPARATION METHOD THEREFOR AND USE THEREOF” (WUHAN LL SCIENCE AND TECHNOLOGY DEVELOPMENT CO., LTD., priority 2021, published 2024).
Read-outs that look alike come from different tables or passages of the source.

Columns and labels:
[1] = target: TRPC5 channel (Homo sapiens (Human), UniProt Q9UL62); assay: TRPC5 calcium flux assay (Fluo-4, FLIPR) in TRPC5-HEK 293 cells; format: cell-based; details: for IC50: 0.3 nM Englerin A
Description: TRPC5 is a type of non-selective cation channel with permeability to calcium ions. […] Fluo-4 AM fluorescence dye was used to indirectly reflect the effect of the compound on TRPC5 channel by detecting intracellular Ca^2+ in TRPC5-HEK 293 cells.
• Revival solution: 100% high glucose DMEM • Selection medium: high glucose DMEM+10% FBS+1% P/S+1% HEPES+Blasticidin (5 μg/mL)+Hygromycine (50 μg/mL) • Induction medium: high glucose DMEM+10% FBS+1% P/S+1% HEPES+Doxycycline (1 μg/mL)
(§1) 14 hours before the real-time fluorescence experiment, cells were washed with PBS and digested with trypsin-EDTA. Cells were diluted to 200,000 cells/mL with induction medium and seeded onto a 96-well black wall bottom transparent plate coated with poly-D-lysine (PDL) (stock solution of 10 mg/mL, final concentration of 10 μg/mL) at 100 μL/well, i.e., 20,000 cells/well.
500 mL of external solution for detecting TRPC5 calcium signals: 4.0908 g of NaCl, 0.1864 g of KCl, 0.111 g of CaCl2, 0.0476 g of MgCl2, 0.9 g of glucose, 1.1915 g of HEPES (2-[4-(2-hydroxyethyl)piperazin-1-yl]ethanesulfonic acid).
Calcium fluorescent dye: an external solution for detecting TRPC5 calcium signals containing Fluo-4 with a final concentration of 4 μM (containing 0.5% BSA)
Positive inhibitor concentration: 100 nM
The dose-effect diagram was used to calculate AUC (area under the curve of the curve formed by the calcium flux signal), and the data and the log of the compound concentration were collected. The IC50 value was calculated using log[Inhibitor] vs. response Variable slope.
TRPC5 is a type of non-selective cation channel with permeability to calcium ions. […] Fluo-4 AM fluorescence dye was used to indirectly reflect the effect of the compound on TRPC5 channel by detecting intracellular […] in TRPC5-HEK 293 cells.
1. Cell culture 1.1 Revival of TRPC5-HEK 293 cells • Revival solution: 100% high glucose DMEM • Selection medium: high glucose DMEM+10% FBS+1% P/S+1% HEPES+Blasticidin (5 μg/mL)+Hygromycine (50 μg/mL) • Induction medium: high glucose DMEM+10% FBS+1% P/S+1% HEPES+Doxycycline (1 μg/mL)
as §1, with “trypsin-EDTA (TE).” for “trypsin-EDTA.”

[2] = Liver microsome half-life assay, rat; format: in vitro ADME; details: liver microsomes, 1 mg/mL liver microsomal protein, 37° C., read-out: Liver microsome T½ (min) Rat
Description: (§2) The in vitro metabolic stability of the compounds of the present disclosure was determined using warm incubation method of liver microsomes in various species. A proper amount of test compound was added to the liver microsomal reaction system (1 mg/mL liver microsomal protein, 25 U/mL glucose-6-phosphate dehydrogenase, 1 mM NADP, 6 mM D-glucose 6-phosphate, 5 mM MgCl2), and the reaction was started by warm incubation in a water bath at 37° C., then 100 μL of the reaction mixture at each time point was added to a centrifuge tube containing 400 μL of internal standard working solution precooled at 0° C. (containing a solution of 200 ng/mL dexamethasone, diclofenac, tolbutamide, and labetalol in acetonitrile), then the reaction was terminated, centrifuged at 4° C. and 10,000 g for 10 min, and the supernatant was taken into LC-MS for analysis and detection to obtain in vitro metabolic half-lives of the test compounds in liver microsomes of various species.

[3] = Liver microsome half-life assay, monkey; format: in vitro ADME; details: liver microsomes, 1 mg/mL liver microsomal protein, 37° C., read-out: Liver microsome T½ (min) Monkey
Description: as §2

[4] = Liver microsome half-life assay, mouse; format: in vitro ADME; details: liver microsomes, 1 mg/mL liver microsomal protein, 37° C., read-out: Liver microsome T½ (min) Mouse
Description: as §2

[5] = Liver microsome half-life assay, human; format: in vitro ADME; details: for half-life: human, liver microsomes, 1 mg/mL liver microsomal protein, 37° C., read-out: Liver microsome T½ (min) Human; for metabolic stability in liver microsomes: compared with compounds C001 and C002, statement on Table 12, species not specified
Description: as §2

[6] = Liver microsome half-life assay, beagle dog; format: in vitro ADME; details: liver microsomes, 1 mg/mL liver microsomal protein, 37° C., read-out: Liver microsome T½ (min) Beagle dog
Description: as §2

[7] = Pharmacokinetic study in mice in vivo (gavage and tail vein injection); details: mouse, plasma; for AUC(0-t) / Cmax: dose 1 mg/kg; for bioavailability: 1 mg/kg, p.o. vs i.v.
Description: […] Mouse plasma was collected at a specific time point after administration, and the concentration of the compound in plasma was detected by LC-MS/MS (AB SCIEX Qtrap4500). PK parameters of each compound (WinNonlin V5.2, Pharsight) were statistically analyzed and calculated to reflect the pharmacokinetic properties of the compounds of the present disclosure in mice in vivo.

[8] = Table 11, read-out: TRPC5 inhibitory activity, IC50

TRPC5 channel, sequence (Q9UL62 whole entry): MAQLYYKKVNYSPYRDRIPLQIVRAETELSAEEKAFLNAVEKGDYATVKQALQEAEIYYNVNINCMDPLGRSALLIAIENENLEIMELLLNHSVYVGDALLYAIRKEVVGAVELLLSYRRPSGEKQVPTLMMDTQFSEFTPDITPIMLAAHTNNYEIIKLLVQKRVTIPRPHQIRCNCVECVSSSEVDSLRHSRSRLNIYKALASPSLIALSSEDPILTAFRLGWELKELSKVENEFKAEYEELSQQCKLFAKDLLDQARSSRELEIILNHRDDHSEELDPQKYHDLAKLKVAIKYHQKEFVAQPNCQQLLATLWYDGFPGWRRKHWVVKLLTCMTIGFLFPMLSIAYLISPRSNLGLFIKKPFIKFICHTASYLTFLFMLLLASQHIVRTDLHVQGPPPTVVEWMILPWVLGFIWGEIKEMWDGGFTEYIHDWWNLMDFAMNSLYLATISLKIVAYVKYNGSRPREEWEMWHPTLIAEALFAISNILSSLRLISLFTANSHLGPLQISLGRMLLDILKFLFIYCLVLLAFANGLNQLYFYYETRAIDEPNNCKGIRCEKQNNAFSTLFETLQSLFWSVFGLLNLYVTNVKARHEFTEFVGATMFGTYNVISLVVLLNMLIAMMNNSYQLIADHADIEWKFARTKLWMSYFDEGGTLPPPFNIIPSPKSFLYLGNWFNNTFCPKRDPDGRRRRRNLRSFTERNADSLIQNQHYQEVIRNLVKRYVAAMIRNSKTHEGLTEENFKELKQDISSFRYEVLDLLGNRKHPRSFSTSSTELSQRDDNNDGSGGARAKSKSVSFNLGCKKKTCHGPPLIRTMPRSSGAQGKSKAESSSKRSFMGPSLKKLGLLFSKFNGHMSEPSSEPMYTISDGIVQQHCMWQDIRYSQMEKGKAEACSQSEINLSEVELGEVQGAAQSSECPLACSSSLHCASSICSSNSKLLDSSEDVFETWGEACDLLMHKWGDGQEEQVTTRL

half-life [2] [min]	half-life [4] [min]	half-life [5] [min]	AUC(0-t) ([7]; iv) [ng·h/mL]	Cmax ([7]; iv) [ng/mL]	bioavailability ([7]; po) [%]	AUC(0-t) ([7]; po) [ng·h/mL]	Cmax ([7]; po) [ng/mL]	IC50 [1, 8] [nM]	Compound	other results
									O=C(c1ccc(F)cc1C(F)(F)F)c1cnc2n1CCN(c1cnn(COP(=O)(O)O)c(=O)c1Cl)C2 [Compound 1, (5-chloro-4-(3-(4-fluoro-2-(trifluoromethyl)benzoyl)-5,6-dihydroimidazo[1,2-a]pyrazin-7(8H)-yl)-6-oxopyridazin-1(6H)-yl)methyl dihydrogen phosphate]	inhibitory activity against TRPC5 channels [1]: no inhibitory activity; IC50 ([1]; Table 1, read-out: TRPC5 inhibitory activity, IC50): > 10000 nM
5	60	54							O=c1[nH]ncc(N2CCc3c(ncn3Cc3ccccc3C(F)(F)F)C2)c1Cl [Compound C001, reference compound]	half-life [3]: 38 min; half-life [6]: 15 min
34	115	90							O=c1[nH]ncc(N2CCc3c(ncn3Cc3ccc(F)cc3C(F)(F)F)C2)c1Cl [Compound C002, reference compound]	half-life [3]: 15 min; half-life [6]: 102 min
20	154	173	225	225	80.6	84.3	84.3	10.8	O=c1[nH]ncc(N2CCn3c(Cc4ccccc4C(F)(F)F)cnc3C2)c1Cl [Compound L001, 4-chloro-5-(3-(2-(trifluoromethyl)benzyl)-5,6-dihydroimidazo[1,2-a]pyrazin-7(8H)-yl)pyridazin-3(2H)-one]	metabolic stability in liver microsomes [5]: significantly improved
	188	262	1450	833	43.2	625	248	6.52	O=c1[nH]ncc(N2CCn3c(Cc4ccc(F)cc4C(F)(F)F)cnc3C2)c1Cl [Compound L002, 4-chloro-5-(3-(4-fluoro-2-(trifluoromethyl)benzyl)-5,6-dihydroimidazo[1,2-a]pyrazin-7(8H)-yl)pyridazin-3(2H)-one]	metabolic stability in liver microsomes [5]: significantly improved
								7.37	O=c1[nH]ncc(N2CCn3c(Cc4ccc(F)cc4C(F)F)cnc3C2)c1Cl [Compound L007]	
								39.4	O=c1[nH]ncc(N2CCn3c(Cc4ccc(F)cc4Cl)cnc3C2)c1Cl [Compound L009]	
	131	148						14.6	O=c1[nH]ncc(N2CCn3c(Cc4cc(F)ccc4C(F)(F)F)cnc3C2)c1Cl [Compound L013, 4-chloro-5-(3-(5-fluoro-2-(trifluoromethyl)benzyl)-5,6-dihydroimidazo[1,2-a]pyrazin-7(8H)-yl)pyridazin-3(2H)-one]	
	167	7590	663	762	161	1070	301	18.2	N#Cc1ccc(Cc2cnc3n2CCN(c2cn[nH]c(=O)c2Cl)C3)c(C(F)(F)F)c1 [Compound L014, 4-((7-(5-chloro-6-oxo-1,6-dihydropyridazin-4-yl)-5,6,7,8-tetrahydroimidazo[1,2-a]pyrazin-3-yl)methyl)-3-(trifluoromethyl)benzonitrile]	
								24	N#Cc1ccc(C(=O)c2cnc3n2CCN(c2cn[nH]c(=O)c2Cl)C3)c(C(F)(F)F)c1 [Compound L019, 4-(7-(5-chloro-6-oxo-1,6-dihydropyridazin-4-yl)-5,6,7,8-tetrahydroimidazo[1,2-a]pyrazine-3-carbonyl)-3-(trifluoromethyl)benzonitrile]	
